Results published in patent US9993564B2, “Blood brain barrier shuttle” (Hoffmann-La Roche Inc., priority 2014, dated 2018).

Key:
[1] = in vivo phage display selection (4 rounds) with CSF sampling, sequencing of CSF recovered phage clones; parameters: species or system rat; settings: for Reads: CSF recovered phage clones after 4 rounds of in vivo selection in rats, 924 sequencing in total; for Frequency (%): frequency of each peptide related to the 924 total sequencing runs, CSF, after 4 rounds of in vivo selection in rats
[2] = test system: brain blood vessels and capillaries; assay: immunohistochemistry of intravenously administered phage clones bound to brain vasculature; format: in vivo; settings: FIG. 5, no staining with empty phage
Excerpt: Specific phage clones were intravenously administered to allow targeting in vivo. Subsequently, immunohistochemistry was used to detect the phages specifically bound to the brain blood vessels and capillaries. […] ID. NO. 1, SEQ. ID. NO. 6 and SEQ. ID. NO.
ID. NO. 8 is linked to SA through an N-terminal biotin. […] ID. NO.

Substance: 15 (YSMVFVGIKL; Brain targeting peptide) [compound 15]
- Reads [1]: 10
- Frequency (%) [1]: 1.2%

Substance: LYVLHSRGLWGFKL (displayed on T7 phage; Brain targeting peptide) [SEQ. ID. NO. 1]
- staining at brain capillaries in the cortex (immunohistochemistry) [2]: strong and specific staining

Substance: 17 (RRPAPLIMFRMI; Brain targeting peptide) [compound 17]
- Reads [1]: 9
- Frequency (%) [1]: 1.0%

Substance: 9 (IGTLTT; Brain targeting peptide) [compound 9]
- Reads [1]: 22
- Frequency (%) [1]: 2.8%

Substance: 19 (SRYSIGGNNGVT; Brain targeting peptide) [compound 19]
- Reads [1]: 7
- Frequency (%) [1]: 0.9%

Substance: 13 (DAAESVLVGTVR; Brain targeting peptide) [compound 13]
- Reads [1]: 15
- Frequency (%) [1]: 1.7%

Substance: 6 (GRPQKINGARVC; Brain targeting peptide) [compound 6]
- Reads [1]: 29
- Frequency (%) [1]: 4.3%

Substance: 10 (YNQSLLQGYRYW; Brain targeting peptide) [compound 10]
- Reads [1]: 21
- Frequency (%) [1]: 2.3%

Substance: 31 (FLIQWGAVLSRG; Brain targeting peptide) [compound 31]
- Reads [1]: 2
- Frequency (%) [1]: 0.3%

Substance: 4 (KVAWRVFSLFWK; Brain targeting peptide) [compound 4]
- Reads [1]: 57
- Frequency (%) [1]: 6.1%

Substance: 25 (LPGGSPGHILVC; Brain targeting peptide) [compound 25]
- Reads [1]: 4
- Frequency (%) [1]: 0.4%

Substance: 33 (TAVFSALSMLRG; Brain targeting peptide) [compound 33]
- Reads [1]: 2
- Frequency (%) [1]: 0.2%

Substance: 7 (MRWFFSHASQGR; Brain targeting peptide) [compound 7]
- Reads [1]: 28
- Frequency (%) [1]: 3.1%

Substance: 14 (YAWGGGWVLQWF; Brain targeting peptide) [compound 14]
- Reads [1]: 12
- Frequency (%) [1]: 1.6%

Substance: 26 (GWIPYDGGNRAR; Brain targeting peptide) [compound 26]
- Reads [1]: 4
- Frequency (%) [1]: 0.4%

Substance: 34 (AVES; Brain targeting peptide) [compound 34]
- Reads [1]: 2
- Frequency (%) [1]: 0.2%

Substance: 1 (LYVLHSRGLWGFKL; Brain targeting peptide) [compound 1]
- Reads [1]: 147
- Frequency (%) [1]: 15.9%

Substance: 12 (ISNRSHKGLMVG; Brain targeting peptide) [compound 12]
- Reads [1]: 16
- Frequency (%) [1]: 1.8%

Substance: 8 (RLSSVDSDLSGC; Brain targeting peptide) [compound 8]
- Reads [1]: 26
- Frequency (%) [1]: 3.0%

Substance: 23 (STVVCFKGVPTG; Brain targeting peptide) [compound 23]
- Reads [1]: 5
- Frequency (%) [1]: 0.5%

Substance: 28 (GCASPASTSFHS; Brain targeting peptide) [compound 28]
- Reads [1]: 3
- Frequency (%) [1]: 0.3%

Substance: 20 (SGSGIGLDRWRV; Brain targeting peptide) [compound 20]
- Reads [1]: 7
- Frequency (%) [1]: 0.7%

Substance: 22 (NSHAMSC; Brain targeting peptide) [compound 22]
- Reads [1]: 5
- Frequency (%) [1]: 0.6%

Substance: 16 (DVAKVS; Brain targeting peptide) [compound 16]
- Reads [1]: 10
- Frequency (%) [1]: 1.0%

Substance: 18 (DPQILMGVLRSIRGFGVKL; Brain targeting peptide) [compound 18]
- Reads [1]: 9
- Frequency (%) [1]: 0.9%

Substance: 5 (SVHGV; Brain targeting peptide) [compound 5]
- Reads [1]: 40
- Frequency (%) [1]: 6.1%

Substance: 29 (LRPRGAFQRRDFKL; Brain targeting peptide) [compound 29]
- Reads [1]: 3
- Frequency (%) [1]: 0.3%

Substance: 36 (LWVSVPRARIIQ; Brain targeting peptide) [compound 36]
- Reads [1]: 2
- Frequency (%) [1]: 0.2%

Substance: 2 (LGSVS; Brain targeting peptide) [compound 2]
- Reads [1]: 137
- Frequency (%) [1]: 14.8%

Substance: 35 (RPRAQGAL; Brain targeting peptide) [compound 35]
- Reads [1]: 2
- Frequency (%) [1]: 0.2%

Substance: 27 (STMRYVGVTCL; Brain targeting peptide) [compound 27]
- Reads [1]: 3
- Frequency (%) [1]: 0.4%

Substance: 21 (WGCNGTEWRGLLGIKL; Brain targeting peptide) [compound 21]
- Reads [1]: 6
- Frequency (%) [1]: 0.7%

Substance: 32 (VRDWAYVYSTVL; Brain targeting peptide) [compound 32]
- Reads [1]: 2
- Frequency (%) [1]: 0.2%

Substance: 11 (RSTASTSYPFFF; Brain targeting peptide) [compound 11]
- Reads [1]: 17
- Frequency (%) [1]: 2.2%

Substance: 24 (TWLFSLG; Brain targeting peptide) [compound 24]
- Reads [1]: 4
- Frequency (%) [1]: 0.5%

Substance: 30 (ELVHA; Brain targeting peptide) [compound 30]
- Reads [1]: 3
- Frequency (%) [1]: 0.3%

Substance: GRPQKINGARVC [SEQ. ID. NO. 6]
- staining at brain capillaries in the cortex (immunohistochemistry) [2]: strong and specific staining

Substance: 3 (GFVRFRLSNTR; Brain targeting peptide) [compound 3]
- Reads [1]: 115
- Frequency (%) [1]: 12.4%
